These results are taken from patent publication US9943501B2 (KOJUN JAPAN CO., LTD., priority 2014, dated 2018).

Holding throughout (assay type): in vivo
The test system of test [1] is C57BL/6J mice fed with a high-fat diet. The test can be described thus: Anti-obesity effect (body weight) on dietary-induced obesity mouse model. The note with it: 12 weeks; for body weight gain inhibited, with respect to the body weight gain of the control group attributed to the high-calorie diet: once a day into the stomach, 84th day. The method, then: The 5H4PB obtained in Example 6 administered to mice fed with a high-fat diet to verify its anti-obesity effect. Five-week-old male C57BL/6J mice (supplied by Charles River Laboratories Japan, Inc.) were individually raised (one per cage) under environmental conditions involving a temperature of 20 to 26° C., a humidity of 35 to 75%, and 12-hour illumination (7:00 to 19:00). After acclimatization for approximately 1 week, the mice were divided into 6 groups each involving 6 to 8 individuals. Of the test groups, a normal group was fed with a normal solid diet CRF1 (a product of Oriental Yeast Co., Ltd., 3.57 kcal/g) during the test period, and a control group and drug administration groups were fed with a high-calorie solid diet D12492 (a product of Research Diets, Inc., 5.24 kcal/g) during the test period. The diets were freely taken, and water was also freely taken from water supply bottles.
The test substance 5H4PB (produced in Example 6) or a positive control substance rosiglitzaone (a product of Wako Pure Chemical Industries, Ltd.) was administered once a day for 12 weeks at the predetermined dose shown in Table 2 to the mice in each drug administration group. The rosiglitazone is a selective PPARγ ligand and is a substance having the effect of lowering the concentrations of glucose, fatty acid, and insulin in blood through binding to PPARγ. For the administration, body weight measurement was carried out once a week to calculate the dose to each individual. 5H4PB and rosiglitazone were each suspended in a 0.5 w/v % aqueous methylcellulose solution and diluted with the same aqueous solution to adjust the administration dose to 10 mL/kg. Then, each substance was forced-administered into the stomach using a syringe and a flexible stomach tube. […]
From the start of the test (administration), the body weight of each individual was measured at a frequency of once a week, and the average body weight of each test group was determined. […]

Test [2] has the same test system. As to the kind of experiment: Adiponectin in blood of dietary-induced obesity mouse model. The settings on record: 85 days, FIG. 15. From the text: Adiponectin is a secretory protein related to dysmetabolic syndrome such as insulin resistance, diabetes mellitus or arteriosclerosis. Adiponectin-deficient mice have the properties of being more likely to develop insulin resistance and being more likely to be affected by arteriosclerosis than wild-type mice. In humans as well, it is known that lowered adiponectin concentrations are related to dysmetabolic syndrome such as diabetes mellitus and arteriosclerosis. Thus, the dietary-induced obesity mouse models of Example 9 were subjected to the test of measuring the amount of adiponectin in blood.
For each individual of the male C57BL/6J mice after a lapse of 85 days into the test of Example 9, blood was collected from the abdominal vena cava using a syringe supplemented with heparin under anesthesia with 2% isoflurane. The amount of blood collected was set to approximately 0.8 mL. The collected blood was stored under ice cooling until centrifugation. After centrifugation (conditions: 4° C., approximately 1800×g, 10 min), the upper layer was recovered to obtain plasma. The plasma was dispensed to sampling tubes and cryopreserved until measurement. The mouse adiponectin concentration contained in the mouse plasma obtained from each individual was measured using a commercially available ELISA kit, and the average adiponectin concentration of each test group was determined. […]

Test [3] shares this test system. The test can be described thus: Leptin in blood of dietary-induced obesity mouse model. The settings on record: 0.037 μg/kg/day and 0.01 mg/kg/day; 85 days; FIG. 17. The method, then:
For each individual of the male C57BL/6J mice after a lapse of 85 days into the test of Example 9, blood was collected from the abdominal vena cava using a syringe supplemented with heparin under anesthesia with 2% isoflurane. The amount of blood collected was set to approximately 0.8 mL. The collected blood was stored under ice cooling until centrifugation. After centrifugation (conditions: 4° C., approximately 1800×g, 10 min), the upper layer was recovered to obtain plasma. The plasma was dispensed to sampling tubes and cryopreserved until measurement. The mouse adiponectin concentration contained in the mouse plasma obtained from each individual was measured using a commercially available ELISA kit, and the average adiponectin concentration of each test group was determined.
Leptin is a protein hormone that regulates appetite and metabolism. The leptin concentration in blood is known to elevate due to obesity, resulting in leptin resistance. In Example 10, the amount of mouse leptin contained in the mouse plasma obtained from each individual was measured using a commercially available ELISA kit, and the average leptin concentration of each test group was determined. The ordinate of the drawing depicts the leptin concentration (pg/mL) in the mouse plasma. The test group indicated by each bar of the bar graph is the same as in FIGS. 15 and 16 mentioned above.

The test system is the same in test [4]. The test can be described thus: Amounts of subcutaneous fat and visceral fat in dietary-induced obesity mouse model. The settings on record: 85 days, relative to increase in control group over normal group. The method, then: For each individual of the male C57BL/6J mice after lapse of 85 days into the test of Example 9, blood was collected under anesthesia with 2% isoflurane, and the mice were then euthanized. Inguinal subcutaneous fat, epididymal fat, perirenal fat, and mesenteric fat were collected from each individual. The weight of each fat was measured, and the average fat weights of each test group were determined.
The ordinate of the drawing depicts the measured weight (g) of each fat tissue. Each bar of the bar graph indicates the normal group, the control group, the 5H4PB 0.037 μg/kg/day administration group, the 5H4PB 0.01 mg/kg/day administration group, the rosiglitazone 0.037 μg/kg/day administration group, and the rosiglitazone 10 mg/kg/day administration group from the left to the right. […] Specifically, increase in the amount of each fat tissue was inhibited by approximately 35% for the inguinal subcutaneous fat, approximately 18% for the epididymal fat, approximately 13% for the perirenal fat, and approximately 16% for the mesenteric fat in the test group administered 0.037 μg/kg/day of 5H4PB, while increase in the amount of each fat tissue was inhibited by approximately 34% for the inguinal subcutaneous fat, approximately 15% for the epididymal fat, approximately 13% for the perirenal fat, and approximately 40% for the mesenteric fat in the test group administered 0.01 […] of 5H4PB, with respect to the amount of each fat tissue increased in the control group due to the high-calorie diet (the value determined by subtracting the fat tissue weight of the normal group from the fat tissue weight of the control group). Thus, 5H4PB administered at a low dose was confirmed to have subcutaneous fat and visceral fat accumulation inhibitory effects.

The mark [5] stands for this setting: 0.01 μg/kg/day (so in the source).

Turning to `O=C1C=C(c2ccccc2)C(O)O1` (centres unmarked) [5H4PB, 5-hydroxy-4-phenylbutenolide], the “anti-obesity effect (overall)” value in test [1] (0.037 μg/kg/day and 0.01 mg/kg/day) is given as “high anti-obesity effect”. In addition, in test [1] (0.037 μg/kg/day), the “body weight gain inhibited, with respect to the body weight gain of the control group attributed to the high-calorie diet” value was 25.8%. The “body weight gain inhibited, with respect to the body weight gain of the control group attributed to the high-calorie diet” value in test [1] (0.01 mg/kg/day) was found to be 27.8%. Moreover, the “adiponectin concentration in mouse plasma compared with the control group (t test)” value in test [2] (0.01 mg/kg/day) is reported as “significant rise in adiponectin concentration”. In addition, in test [2] (5H4PB administration groups (0.037 μg/kg/day and 0.01 mg/kg/day)), the “adiponectin concentration in mouse plasma compared with the control group” value is recorded as “confirmed to elevate”. For the same molecule, in test [3], the “leptin concentration in mouse plasma compared with the control group” value was “inhibition of a rise in leptin concentration was confirmed in a dose-dependent manner”. Moreover, in test [4] (setting [5]), the “increase in the amount of epididymal fat inhibited” value is “approximately 15%”, the “increase in the amount of inguinal subcutaneous fat inhibited” value was “approximately 34%”, the “increase in the amount of mesenteric fat inhibited” value is “approximately 40%” and the “increase in the amount of perirenal fat inhibited” value is recorded as “approximately 13%”. Further, in test [4] (0.037 μg/kg/day), the “increase in the amount of epididymal fat inhibited” value is listed as “approximately 18%”, the “increase in the amount of inguinal subcutaneous fat inhibited” value is listed as “approximately 35%”, the “increase in the amount of mesenteric fat inhibited” value was “approximately 16%” and the “increase in the amount of perirenal fat inhibited” value was “approximately 13%”.
